Experimental data from a melting point compilation (Tetko et al.; mined from patent text by program, amines drawn as free bases though some values may be those of a salt).

Compound | melting point [°C]
COC(C)=CC(=O)NC1CCCCCC1 | 120
CCCCc1ccc(C(=O)C(CC(=O)N[C@@H](Cc2cc(F)cc(F)c2)[C@H](O)CNCc2cccc(CC)c2)Cc2ccccc2)cc1 (stereo partly specified) | 42 to 45
CCCCc1nc(Cl)c(CC#N)n1Cc1ccc(C#N)cc1 | 110 to 113
CCOC(=O)CCc1cccc(C(=O)c2cccc(C(=O)OCC)c2)c1C=CCCCCO | 48 to 50
Cc1nnc(NCCNC2CN3CCC2CC3)c2cc3ccccn3c12 (stereo unspecified) | 205 to 208
COc1ccc2c(C(=O)C3CSC(c4cccnc4)N3)c[nH]c2c1 (stereo unspecified) | 86 to 88
CN(C)Cc1ccc(CN)cc1 | 38 to 39
O=C(O)CCCCc1cccn2cncc12 | 195 to 197
C=CCOc1ccc(C=CC(=O)c2c(OC)cc(OC)cc2OC(=O)CC)cc1 | 83.5
C[C@]12CC[C@H]3[C@@H](CCC4=CC(=O)CC[C@@H]43)[C@@H]1CCC21CC(O)CO1 (stereo partly specified) | 149 to 154
CCOC(=O)Cc1sc(SCc2cc(O)nc(C)n2)nc1C | 131 to 132
N#Cc1ccc(Oc2ccc(C#N)cc2C#N)cc1 | 222 to 223
CCCCCCCCCCCCCCCCCCCC(C)=O | 41 to 42
COc1cc(OC)cc(N2CCN(C(=O)Nc3cc4c(nc3OC)CCC4)CC2)c1 | 143 to 144
CNC(=S)Nc1ccc2c(c1)C(=O)C1(CC1)O2 | 191 to 194
CCCCCCCCCCCCCCCCCCOc1cc(OCc2ccc3ccccc3n2)cc(N(CC(=O)O)CC(=O)O)c1 | 172 to 174
CC1(CCC(=O)CCCc2cccc([N+](=O)[O-])c2)C(=O)CCC1=O | 81 to 83
CC(CCCCCCNC(=O)c1ccc(OC(F)(F)F)cc1)NC(=O)c1ccc(OC(F)(F)F)cc1 (stereo unspecified) | 137 to 138
Cn1c(=O)n(C)c2cc(C(=O)CSCCC(=O)O)ccc21 | 174 to 176
OCc1cnn(-c2ccc(OC(F)(F)F)cc2)c1 | 73 to 74

Compound | melting point [°C]
CC1CCC(C(=O)Nc2ccc(-c3ncc(-c4ccc(NC(=O)C5CCCCC5C)cc4)[nH]3)cc2)CC1 (stereo unspecified) | 218 to 220
COC(=O)CCCCCCc1nc(C)sc1C(=O)O | 106 to 107
O=C(c1ccccc1F)c1cc(Br)ccc1NC(=O)C(F)(F)F | 132
COC(=O)CC1(O)C=CC(=O)C=C1 | 53 to 54
CCOC(=O)C(C#N)=Cc1ccc(NC(C)=O)cc1 | 187
CCOC(=O)CCNC(=O)n1nc(Oc2c(Cl)cc(C(F)(F)F)cc2Cl)cc1C | 73 to 74
COC(=O)[C@@H](NC(=O)Nc1n[nH]c(=S)s1)c1ccccc1 | 137 to 139
C[C@@H]1N(c2ccc(C#N)c(Cl)c2)C(=O)C[C@]1(C)O | 93 to 99
CNC(=NC(=O)OC)N(C)C | 80 to 85
COc1cc(CNC(C)=O)c(Cl)cc1O | > 300
Cc1ccc(S(=O)(=O)C2=CC3C=CC2N3C(=O)OC(C)(C)C)cc1 (stereo unspecified) | 94 to 99
O=C(O)CP(=O)(O)C(CCCc1ccccc1)NC(=O)c1ccccc1 (stereo unspecified) | 170 to 175
CN(C)Cc1nc(CSCCNC(=N)N[N+](=O)[O-])cs1 | 104 to 106
Nc1c(F)c(N2CCNCC2)cc2c1c(=O)c(C(=O)O)cn2C1COC1 | 244 to 246
N#CC(C#N)=C1N(CCCN2CCCCC2)CCN1CCCN1CCCCC1 | 99 to 101
Cc1oncc1C(=O)N1CCCC1 | 51 to 53
O=C(O)COc1cccc2c1Cc1sc(SCCCC(c3ccccc3)c3ccccc3)nc1-2 | 110 to 112
CC(=O)[C@H]1C[C@@H](C(N)=S)N(C(=O)OCc2ccc([N+](=O)[O-])cc2)C1 | 168 to 170
CC(=O)NCCC1CCc2ccc3ocnc3c21 (stereo unspecified) | 89 to 92
CC(OC(=S)Nc1ccc(-c2ncn(-c3ccc(OC(F)(F)F)cc3)n2)cc1)c1ccc(C(F)(F)F)nc1 (stereo unspecified) | 186 to 188

Compound | melting point [°C]
C#CCOCCn1c(N2CCN(C)CC2)nc2ccccc21 | 145 to 146
CC1(C(=O)O)OCCC2=CC3=CC=CCC3=C21 (stereo unspecified) | 171 to 173
CN1CCN(C(=O)C(CC(=O)N2Cc3cscc3C2)Cc2ccccc2)CC1 (stereo unspecified) | 156 to 158
CC(C)(C)c1cc(CCc2nsc(=O)o2)cc(C(C)(C)C)c1O | 82 to 86
CN1C(=O)[C@@H](NC(=O)c2ccccc2I)N=C(c2ccccc2)c2ccccc21 | 115 to 120
O=C(OC(Cc1ccccc1)C(=O)O)c1ccccc1 (stereo unspecified) | 113
CSc1c[nH]c2cccc([N+](=O)[O-])c12 | 123 to 124
CCOC(C)OC1CCC2(C)C3=C(CCC2C1(C)C)C1=CCC(C(C)OCc2ccccc2)C1(C)CC3 (stereo unspecified) | 138 to 143
CCOC(=O)C1=C(C(F)(F)F)Nc2n[nH]cc2C1c1ccc(OC)cc1 (stereo unspecified) | 159 to 161
COC(=O)CC=Cc1c(C(C)C)cc(C(C)C)cc1C(C)C | 61 to 63
CCn1cnc(C(N)=O)c1NC(=S)NC(=O)c1ccccc1 | 178 to 180
O=C(O)C1(Cc2ccccc2)CCN(Cc2ccccc2)CC1 | 262
O=C1c2cccc(NC3CCCC3)c2C(=O)c2cccc(NC3CCCC3)c21 | 198 to 201
COCC1CCN(c2ccc(C#N)c3ccccc23)CC1 | 96 to 97
CCCCC1(O)c2cc(NC(=O)CC(C)(C)C)c(C)c(C)c2OC1(C)C (stereo unspecified) | 161 to 162
CCCCCCCCCCCCc1ccc(CO)cc1 | 44 to 45
Cc1oncc1-c1ccc(OC2SCC(O)C(O)C2O)cn1 (stereo unspecified) | 184
O=c1[nH]c2c(o1)-c1ccncc1CC2 | 290 to 292
Nc1nnc(C(F)(F)Oc2ccccc2)s1 | 149 to 151

Results, then the compound that gave them:

melting point [°C] | Compound
155 to 156 | CCC1c2cccn2-c2c(cc(F)c(F)c2F)N1S(=O)(=O)c1ccc(O)cc1 (stereo unspecified)
145 to 150 | COc1ccc(-c2ccncc2)cc1-c1cccc([N+](=O)[O-])c1
245 to 247 | Cc1c(Nc2c(C#N)cncc2-c2nccs2)ccc2[nH]ccc12
150 | NCCNCCCNCCN1C(=O)c2cccc3cc4ccccc4c(c23)C1=O
178 to 180 | NC(=O)c1cc(NCc2cccc(Cl)c2)c([N+](=O)[O-])cc1[N+](=O)[O-]
235 to 237 | CN(C)c1ccc(-n2c(CC(=O)O)c(C(=O)O)c3cc(Oc4ccc(C(F)(F)F)cc4)ccc32)cc1
84 to 86 | CC1(N)CN(C(c2ccccc2)c2ccccc2)C1
186 to 189 | CSc1cccc2nc3sccn3c(=O)c12
202 to 205 | Cc1ccc2c(c1)N(CC(=O)c1ccccc1C)C(=O)C(NC(=O)Nc1cccc(C(=O)O)c1)CN2C(=O)CC(C)C (stereo unspecified)
254 | COc1cc(N=Nc2ccc3[nH]nnc3c2)c(O)c2ccccc12
140 to 150 | Clc1ccc(-c2nc3ccccc3nc2Cl)c(Cl)c1
126 to 128 | CS(=O)(=O)Nc1cc(NC(=O)CCl)ccc1Oc1ccccc1
249 to 250 | CC(=O)Nc1cccc(-c2cnc3[nH]cc(C(=O)C(C)(C)C)c3n2)c1
131 to 133 | COc1ccc(N2CCN(c3c(C)c(C)c4c(c3C)C(O)(c3ccsc3)C(C)(C)O4)CC2)cc1 (stereo unspecified)
244 | O=C(Nc1ccc2ccc(Cl)nc2n1)c1cccs1
85 to 87 | CCCC(C(=O)N(C)C)n1cc(Cl)c(-c2ccccc2)n1 (stereo unspecified)
162 | CCCOc1ncc(N(C)C)cc1-c1nc2c(CCC)nn(C)c2c(=O)[nH]1
148 to 152 | CCOC(=O)c1cc(=O)cc(-c2cccc([N+](=O)[O-])c2)o1
196 to 197 | CN(C)NC1=C2N=c3cc(Cl)ccc3=C2Oc2ccccc2N1C
130 | CCOC(=O)c1c(C(F)(F)F)nc(-c2ccccc2)c(-c2ccccc2)c1O
113 to 116 | C=C(C(N)=O)N1CCC(c2ccc(OC(C)=O)c(OC)c2)C1c1ccccc1 (stereo unspecified)

melting point [°C] | Compound
170 to 174 | COc1ccc(-c2csc(Nc3ccccc3)n2)cc1OC
187 to 190 | Cc1ccccc1C(=O)N(C)c1ccc(C(=O)O)cc1
122 | COc1ccc2oc(Cc3ccccc3OC)c(CC#N)c2c1
248 to 250 | COc1cc(C=CC(=O)Nc2c(-c3ccccc3C)c3cc(Cl)c(C)cc3oc2=O)cc(OC)c1OC(C)=O
143 to 145 | Cc1cccc(Nc2cc(Nc3cccc(OCC4CO4)c3)ncn2)c1 (stereo unspecified)
59 to 61 | CCOC(=O)c1ccoc1COc1cc(-c2nn(C)c(OC(F)F)c2Cl)c(F)cc1Cl
150 to 152 | CCCCNC(=S)Nc1cc(Cl)ccc1N1CCOCC1
193 to 195 | CCN1C(=O)NC(c2ccc3ccccc3c2)c2cc3c(cc21)OCO3 (stereo unspecified)
179 to 180 | Cn1c(=O)c2c(ncn2CC(O)Cc2noc(-c3ccccc3)n2)n(C)c1=O (stereo unspecified)
157 to 159 | CC(C)(C)CN1C(=O)[C@@H](CCO)O[C@H](c2ccccc2Cl)c2cc(Cl)ccc21 (relative stereo)
175 to 183 | Fc1ccc(-c2cc3ncnc(Nc4ccc5[nH]ccc5c4)c3s2)cc1Cl
203 to 204 | CS(=O)(=O)c1ccc(-c2cnn(-c3ccc(F)cc3)c(=O)c2C#Cc2ccccc2)cc1
204 to 206 | CSC1=NC(c2cccc([N+](=O)[O-])c2)C2=C(COC2=O)N1 (stereo unspecified)
130 to 132 | CCOC(=O)C1=C(C)NC(=S)N(C(=O)c2ccc(OC)cc2)C1c1cccc([N+](=O)[O-])c1 (stereo unspecified)
75 | OC(CNCCc1ccsc1)c1ccccc1 (stereo unspecified)
125 to 128 | Oc1cccc(-c2ccccc2-c2nc(-c3ccccc3)c(-c3ccccc3)o2)c1
57 to 58 | COc1ccc(C)c(OC(F)C(=O)c2ccccc2)c1 (stereo unspecified)
187 to 190 | O=c1c(-c2ccccc2)c(Cn2cnc3c(Cl)ncnc32)oc2ccccc12
123 to 124 | COc1nnc(C)c(-c2ccc(Cl)nc2)c1-c1c(F)cc(F)cc1F
187 to 189 | COc1cc2c(c3c1OC(C)(C)C3)C(c1ccccc1-c1ccncc1)=NC(C)(C)C2
189 to 190 | COc1ccccc1CNC(=O)c1oc(=O)c2ncccc2c1-c1ccc(C)cc1
